Results from PMC5584945, “Evaluation of robenidine analog NCL195 as a novel broad-spectrum antibacterial agent” (PLoS ONE, 2017).
In brackets after ≈: the same amount, converted by molar mass. Read-outs that look alike come from different tables or passages of the source.

Tests used:
S. aureus Xen29 = test: Time-dependent killing assay; type: cell-based, Staphylococcus aureus
Experimental: Time kill assays were performed (in duplicate) essentially as described previously with slight modifications. Briefly, a few colonies of luminescent S. pneumoniae strain D39LUX or luminescent S. aureus ATCC 12600 (Xen29) from an overnight HBA were emulsified in normal saline and adjusted to A600 nm = 0.10 (equivalent to approx. 5 × 10^7 c.f.u. per ml) and the bacterial suspension further diluted 1:20 in saline. […] The compounds were serially diluted in 100% DMSO at 100× the final desired concentration and 100 μl of appropriate concentrations added to each 10 ml preparation. Duplicate cultures were incubated at 37°C (+ 5% CO2 for S. pneumoniae D39), with samples withdrawn at 0, 0.5, 1, 2, 4, 6, 8 and 24 h, serially diluted 10-fold and plated on HBA overnight at 37°C (+ 5% CO2 for S. pneumoniae D39) for bacterial enumeration.

Hep G2 = test: Real-time cell viability, RealTime-Glo MT; type: cell-based, human; conditions: 2 or 8 μg/ml, up to 20 h post-treatment
MDBK = test: Real-time cell viability, RealTime-Glo MT; type: cell-based, bovine; conditions: 2 or 8 μg/ml, up to 20 h post-treatment
Text: (§1) In order to ensure minimal off target mammalian cell cytotoxicity, we assayed NCL812, NCL195 and NCL219 for in vitro cytotoxicity using a panel of adherent mammalian cell lines: Caco-2 (human colorectal adenocarcinoma cell line), HEL 299 (non-cancerous human lung fibroblast cell line), Hep G2 (human hepatocellular carcinoma cell line), MDBK (normal bovine kidney cell line) and MCF7 (human mammary gland adenocarcinoma cell line). Cell lines were maintained in Dulbecco’s Modified Eagle’s Medium (DMEM; […] After 24 h incubation, media was removed, washed once with medium without antibiotics and fresh medium supplemented with 10% (vol/vol) FBS was added. […] Following exposure for 24 h, WST-1 reagent was added to each well at a final concentration of 10%. […] The IC50 value for each compound against each cell line was determined via non-linear regression (three parameters) using GraphPad Prism v6 software. The robustness of assays was confirmed with selected cell lines (Hep G2 and MDBK) seeded onto a 96–well Microwell Nunclon Delta Surface plate (Thermo Scientific Nunc; Cat No: 136101) at 5 × 10^4 cells per well.

[1] = Microsomal metabolic stability; type: in vitro ADME; conditions: for microsomal CLint at 0.4 μg/ml / half-life at 0.4 μg/ml: liver microsomes, pH 7.4; for microsomal CLint at 0.4 μg/ml: read-out: CLINT; for Predicted EH: hepatic extraction ratio; for Predicted CLblood: microsome-predicted; for half-life at 0.4 μg/ml: 0.4 μg/ml compound, 0.4 mg/ml protein, NADPH
Experimental: The metabolic stability assay was performed by incubating 0.4 μg/ml of each test compound with human and mouse liver microsomes (Xenotech, Lot# 1210057 and 1310211, respectively) suspended in 0.1 M pH 7.4 phosphate buffer at 37°C and 0.4 mg/ml protein concentration. The metabolic reaction was initiated by the addition of an NADPH-regenerating system (i.e. NADPH is the cofactor required for CYP450-mediated metabolism) and quenched at various time points over a 60 min incubation period by the addition of acetonitrile containing diazepam as internal standard. Control samples (containing no NADPH) were included (and quenched at 2, 30 and 60 min) to monitor for potential degradation in the absence of cofactor. Test compound concentration vs time data were fitted to an exponential decay function to determine the first-order rate constant for substrate depletion. This was used to calculate a degradation half-life (T1/2), in vitro intrinsic clearance (CLINT), microsome-predicted blood clearance (CLblood) and a microsome-predicted hepatic extraction ratio (EH) according to the in vitro half-life method of Obach[53].

[2] = system: Enterococcus faecalis ATCC 29212; test: MIC, broth micro-dilution (CLSI), control strain; type: cell-based
Experimental: MICs for NCL812 and its analogs (serial two-fold dilutions commencing at 128 μg/ml) were determined (in duplicate) in round bottom 96-well microtitre trays (Sarstedt 82.1582.001), using the broth micro-dilution method recommended by the Clinical and Laboratory Standards Institute (CLSI). […] MIC50, MIC90 and MIC range for NCL812, NCL195 and NCL219 were calculated against each S. pneumoniae, S. aureus or VRE isolate. To assess the potential activity of NCL195 against Gram-negative bacteria, MICs against Acinetobacter spp, E. coli, K. pneumoniae, P. aeruginosa, Proteus spp and Neisseria meningitidis were performed in the presence or absence of 0.08 mM-20 mM EDTA in a standard checkerboard assay.

S. pneumoniae = test: MIC, broth micro-dilution (CLSI); type: cell-based, Streptococcus pneumoniae; conditions: for MIC / MIC50 / MIC90: Streptococcus pneumoniae
[3] = system: panel of mammalian cell lines (Caco-2, HEL 299, Hep G2, MDBK, MCF7); test: In vitro cytotoxicity, WST-1, all cell lines tested; type: cell-based; conditions: lower bound over all the cell lines tested
Text: as §1

For `Cc1ccc(/C=N/Nc2cc(N/N=C/c3ccc(C)cc3)nc(N)n2)cc1` [NCL195, 4,6-bis(2-((E)-4-methylbenzylidene)hydrazinyl)pyrimidin-2-amine], the “Time to clear all Xen29” value (S. aureus Xen29; 2× MIC) was 6 h, the “Time to clear all Xen29” value (S. aureus Xen29; 4× MIC) was 6 h and the “Regrowth after 24 h” value (S. aureus Xen29; at the concentrations tested (2× and 4× MIC)) was “some S. aureus regrowth was observed”. The “Effect on cell viability (real-time)” value (Hep G2) was “no measurable effect on cell viability”, the “Effect on cell viability (real-time)” value (MDBK) was “no measurable effect on cell viability” and the microsomal CLint at 0.4 μg/ml ([1]; human) was under 7 µL/min/mg. For the same molecule, the “Predicted EH” value ([1]; human) was under 0.22, the “Predicted CLblood” value ([1]; human) was under 5 mL/min/kg and the half-life at 0.4 μg/ml ([1]; human) was over 4.12 h. The half-life at 0.4 μg/ml ([1]; mouse) was over 4.12 h, the microsomal CLint at 0.4 μg/ml ([1]; mouse) was under 7 µL/min/mg and the “Predicted EH” value ([1]; mouse) was under 0.13. The “Predicted CLblood” value ([1]; mouse) was under 16 mL/min/kg, the MIC ([2]; ATCC29212, 10% FBS) was 32 µg/mL and the MIC ([2]; ATCC29212, absence of FBS) was 4 µg/mL. For the same molecule, the MIC range (S. pneumoniae; 21 isolates) was 2 to 8 µg/mL, the MIC range (S. pneumoniae; S1 Table isolates, 5% FBS + 3% washed RBC) was 2 to 8 µg/mL and the MIC range (S. pneumoniae; S1 Table isolates, 10% FBS + 3% washed RBC) was 2 to 8 µg/mL. For the same molecule, the “Change of MIC in the presence of serum” value (S. pneumoniae; S. pneumoniae D39, human, horse or mouse serum) was “remained the same”, the MIC (S. pneumoniae; A66.1 (serotype 3), 5% FBS) was 8 µg/mL (≈ 22.3 µM) and the MIC (S. pneumoniae; A66.1 (serotype 3), 10% FBS) was 8 µg/mL (≈ 22.3 µM). It also gave an MIC (S. pneumoniae; ATCC6303, ATCC 6303 (serotype 3), 5% FBS + 3% washed RBC) of 4 µg/mL, an MIC (S. pneumoniae; ATCC6303, ATCC 6303 (serotype 3), 10% FBS + 3% washed RBC) of 4 µg/mL and an MIC (S. pneumoniae; D39/D39LUX (serotype 2), 5% FBS) of 8 µg/mL (≈ 22.3 µM). For the same molecule, the MIC (S. pneumoniae; D39/D39LUX (serotype 2), 10% FBS) was 8 µg/mL (≈ 22.3 µM), the MIC (S. pneumoniae; EF3030 (serotype 19F), 5% FBS) was 8 µg/mL (≈ 22.3 µM) and the MIC (S. pneumoniae; EF3030 (serotype 19F), 10% FBS) was 8 µg/mL (≈ 22.3 µM). For the same molecule, the MIC (S. pneumoniae; L82016 (serotype 6B), 5% FBS) was 4 µg/mL (≈ 11.1 µM), the MIC (S. pneumoniae; L82016 (serotype 6B), 10% FBS) was 8 µg/mL (≈ 22.3 µM) and the MIC (S. pneumoniae; P9 (serotype 6A), 5% FBS) was 8 µg/mL (≈ 22.3 µM). The MIC (S. pneumoniae; P9 (serotype 6A), 10% FBS) was 8 µg/mL (≈ 22.3 µM), the MIC (S. pneumoniae; P21 (serotype 3), 5% FBS) was 8 µg/mL (≈ 22.3 µM) and the MIC (S. pneumoniae; P21 (serotype 3), 10% FBS) was 8 µg/mL (≈ 22.3 µM). The MIC50 (S. pneumoniae; S1 Table isolates, 5% FBS) was 4 µg/mL (≈ 11.1 µM), the MIC90 (S. pneumoniae; S1 Table isolates, 5% FBS) was 8 µg/mL (≈ 22.3 µM) and the MIC50 (S. pneumoniae; S1 Table isolates, 10% FBS) was 8 µg/mL (≈ 22.3 µM). For the same molecule, the MIC90 (S. pneumoniae; S1 Table isolates, 10% FBS) was 8 µg/mL (≈ 22.3 µM), the MIC (S. pneumoniae; TIGR4 (serotype 4), 5% FBS) was 4 µg/mL (≈ 11.1 µM) and the MIC (S. pneumoniae; TIGR4 (serotype 4), 10% FBS) was 4 µg/mL (≈ 11.1 µM). It also gave an MIC (S. pneumoniae; WCH16 (serotype 6A), 5% FBS) of 8 µg/mL (≈ 22.3 µM), an MIC (S. pneumoniae; WCH16 (serotype 6A), 10% FBS) of 8 µg/mL (≈ 22.3 µM) and an MIC (S. pneumoniae; WCH43 (serotype 4), 5% FBS) of 4 µg/mL (≈ 11.1 µM). For the same molecule, the MIC (S. pneumoniae; WCH43 (serotype 4), 10% FBS) was 4 µg/mL (≈ 11.1 µM), the MIC (S. pneumoniae; WCH46 (serotype 4), 5% FBS) was 4 µg/mL (≈ 11.1 µM) and the MIC (S. pneumoniae; WCH46 (serotype 4), 10% FBS) was 4 µg/mL (≈ 11.1 µM). For the same molecule, the MIC (S. pneumoniae; WCH57 (serotype 8), 5% FBS) was 4 µg/mL (≈ 11.1 µM), the MIC (S. pneumoniae; WCH57 (serotype 8), 10% FBS) was 4 µg/mL (≈ 11.1 µM) and the MIC (S. pneumoniae; WCH77 (serotype 5), 5% FBS) was 2 µg/mL (≈ 5.56 µM). It also gave an MIC (S. pneumoniae; WCH77 (serotype 5), 10% FBS) of 2 µg/mL (≈ 5.56 µM), an MIC (S. pneumoniae; WCH86 (serotype 4), 5% FBS) of 4 µg/mL (≈ 11.1 µM) and an MIC (S. pneumoniae; WCH86 (serotype 4), 10% FBS) of 4 µg/mL (≈ 11.1 µM). The MIC (S. pneumoniae; WCH89 (serotype 7), 5% FBS) was 8 µg/mL (≈ 22.3 µM), the MIC (S. pneumoniae; WCH89 (serotype 7), 10% FBS) was 8 µg/mL (≈ 22.3 µM) and the MIC (S. pneumoniae; WCH92 (serotype 4), 5% FBS) was 4 µg/mL (≈ 11.1 µM). It also gave an MIC (S. pneumoniae; WCH92 (serotype 4), 10% FBS) of 4 µg/mL (≈ 11.1 µM), an MIC (S. pneumoniae; WCH137 (serotype 6A), 5% FBS) of 8 µg/mL (≈ 22.3 µM) and an MIC (S. pneumoniae; WCH137 (serotype 6A), 10% FBS) of 8 µg/mL (≈ 22.3 µM). The MIC (S. pneumoniae; WCH158 (serotype 19F), 5% FBS) was 4 µg/mL (≈ 11.1 µM), the MIC (S. pneumoniae; WCH158 (serotype 19F), 10% FBS) was 4 µg/mL (≈ 11.1 µM) and the MIC (S. pneumoniae; WCH184 (serotype 19F), 5% FBS) was 8 µg/mL (≈ 22.3 µM). For the same molecule, the MIC (S. pneumoniae; WCH184 (serotype 19F), 10% FBS) was 8 µg/mL (≈ 22.3 µM), the MIC (S. pneumoniae; WCH211 (serotype 11), 5% FBS) was 4 µg/mL (≈ 11.1 µM) and the MIC (S. pneumoniae; WCH211 (serotype 11), 10% FBS) was 4 µg/mL (≈ 11.1 µM). It also gave an MIC (S. pneumoniae; WU2 (serotype 3), 5% FBS) of 8 µg/mL (≈ 22.3 µM), an MIC (S. pneumoniae; WU2 (serotype 3), 10% FBS) of 8 µg/mL (≈ 22.3 µM) and an IC50 [3] of over 10 µg/mL.
